Data as given in PMC4686662 (Nature Communications, 2015).
≈ marks a conversion by molar mass, not a printed value. Like-named read-outs stand apart in the source and are kept apart here.

Experiments:
[1] = test system: human Top2β; design: method as in PMID 26149691; details: cited from earlier work
[2] = test system: S. aureus; test: MIC, broth microdilution, S. aureus strains; format: cell-based; details: Staphylococcus aureus
Procedure: Antibacterial minimum inhibitory concentrations (MICs) were determined from two independent experiments using broth microdilution methods according to Clinical and Laboratory Standards Institute guidelines. […] Bacterial strains used were from GSK's culture collection.
The quinolone resistance-determining region (QRDR) or full-length of gyrA/B and parC/E were amplified by PCR from the resistant mutants and DNA sequenced using the following primer pairs (all 5′–3′ sequence): for S. aureus gyrA: […] and […]; gyrB […] and […]; parC […] and […], and parE […] and […], respectively. For S. pneumoniae gyrA: […] and […]; gyrB: […] and […]; parC: […] and […], and parE: […] and […], respectively. […] Mutations in etoposide-resistant transformants were confirmed by PCR and DNA analysis.

[3] = S. aureus RN4220 (parent), read-out: MIC
[4] = S. aureus RN4220 GyrB ΔT403-K406, read-out: MIC

Row | SMILES | Activity against human Top2β [1] | MIC [2, 3] [µg/mL] | MIC ([2]; S. aureus RN4220 GyrB D437A) [µg/mL] | MIC ([2]; S. aureus RN4220 GyrB D437N) [µg/mL] | MIC ([2]; S. aureus RN4220 GyrB D437V) [µg/mL] | MIC ([2]; S. aureus RN4220 GyrB P456L) [µg/mL] | MIC [2, 4] [µg/mL]
1 | C[C@@H]1CN2c3c(cc4c(N5C(=O)OC[C@@H]5C)noc4c3F)CC3(C(=O)NC(=O)NC3=O)[C@H]2[C@H](C)O1 [AZD9014] | low activity |  |  |  |  |  | 
2 | COc1cc(NS(C)(=O)=O)ccc1Nc1c2ccccc2nc2ccccc12 [Amsacrine, amsacrine] |  | > 128 | 32 (≈ 81.3 µM) | > 128 | 64 (≈ 163 µM) | 32 (≈ 81.3 µM) | 128 (≈ 325 µM)
3 | COc1cccc2c1C(=O)c1c(O)c3c(c(O)c1C2=O)C[C@@](O)(C(C)=O)C[C@@H]3O[C@H]1C[C@H](N)[C@H](O)[C@H](C)O1 [Daunorubicin, daunorubicin] |  | 8 (≈ 15.2 µM) | 8 (≈ 15.2 µM) | 8 (≈ 15.2 µM) | 8 (≈ 15.2 µM) | 4 (≈ 7.58 µM) | 1.5 (≈ 2.84 µM)
4 | COc1cccc2c1C(=O)c1c(O)c3c(c(O)c1C2=O)C[C@@](O)(C(=O)CO)C[C@@H]3O[C@H]1C[C@H](N)[C@H](O)[C@H](C)O1 [Doxorubicin, doxorubicin] |  | 8 (≈ 14.7 µM) | 8 (≈ 14.7 µM) | 8 (≈ 14.7 µM) | 8 (≈ 14.7 µM) | 4 (≈ 7.36 µM) | 3 (≈ 5.52 µM)
5 | Cc1c2ccncc2c(C)c2c1[nH]c1ccccc12 [Ellipticine, ellipticine] |  | 1 (≈ 4.06 µM) | 1 (≈ 4.06 µM) | 1 (≈ 4.06 µM) | 1 (≈ 4.06 µM) | 1 (≈ 4.06 µM) | 1 (≈ 4.06 µM)
